Test results: PubChem BioAssay AID330 (DTP/NCI, 2004)
Values joined by “and” are separate entries in the source; they are usually repeats but may differ in a detail not shown here. Equal entries are not always repeated. Toxic doses and inconclusive results are not listed. Rule for the calls: active = survival T/C of 150% or more; inactive = T/C below 125% in these data.

Test system: P388 leukemia ip, CD2F1 mice, survival T/C
Assay: NCI In Vivo Anticancer Drug Screen. Data for tumor model P388 Leukemia (intraperitoneal) in CD2F1 (CDF1) mice
Settings: endpoint: median survival time, higher = longer survival
Method in brief: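 Mice carrying the transplanted tumor received test compound or vehicle. Survival was recorded in each group, and the value is the treated-group measurement divided by that of the vehicle-treated control group.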

[1] = dose: 50.0 mg/kg/injection, schedule: Q01DX005 (ip), vehicle: saline with Tween-80
[2] = dose: 100.0 mg/kg/injection, schedule: Q01DX005 (ip), vehicle: saline with Tween-80
[3] = dose: 200.0 mg/kg/injection, schedule: Q01DX005 (ip), vehicle: saline with Tween-80
[4] = dose: 50.0 mg/kg/injection, schedule: Q01DX005 (ip), vehicle: Klucel (hydroxypropylcellulose) (HPC)
[5] = dose: 100.0 mg/kg/injection, schedule: Q01DX005 (ip), vehicle: Klucel (hydroxypropylcellulose) (HPC)
[6] = dose: 200.0 mg/kg/injection, schedule: Q01DX005 (ip), vehicle: Klucel (hydroxypropylcellulose) (HPC)
[7] = dose: 25.0 mg/kg/injection, schedule: Q01DX009 (ip), vehicle: saline with Tween-80
[8] = dose: 50.0 mg/kg/injection, schedule: Q01DX009 (ip), vehicle: saline with Tween-80
[9] = dose: 100.0 mg/kg/injection, schedule: Q01DX009 (ip), vehicle: saline with Tween-80
[10] = dose: 50.0 mg/kg/injection, schedule: Q01DX009 (ip), vehicle: Klucel (hydroxypropylcellulose) (HPC)
[11] = dose: 100.0 mg/kg/injection, schedule: Q01DX009 (ip), vehicle: Klucel (hydroxypropylcellulose) (HPC)
[12] = dose: 100.0 mg/kg/injection, schedule: Q04DX002 (ip), vehicle: saline with Tween-80
[13] = dose: 200.0 mg/kg/injection, schedule: Q04DX002 (ip), vehicle: saline with Tween-80
[14] = dose: 400.0 mg/kg/injection, schedule: Q04DX002 (ip), vehicle: saline with Tween-80

Measured: T/C

CCC(c1ccc(OCCS(=O)(=O)OC)cc1)C(CC)c1ccc(OCCS(=O)(=O)OC)cc1 (centres undefined)
inactive: dose: 12.5 mg/kg/injection, schedule: Q01DX009 (ip), vehicle: suspension in saline 100 % of control | dose: 25.0 mg/kg/injection, schedule: Q01DX009 (ip), vehicle: suspension in saline 94 % of control | dose: 50.0 mg/kg/injection, schedule: Q01DX009 (ip), vehicle: saline 91 % of control | dose: 50.0 mg/kg/injection, schedule: Q01DX009 (ip), vehicle: suspension in saline 87 % of control | dose: 200.0 mg/kg/injection, schedule: Q01DX009 (ip), vehicle: saline 92 % of control

O=C1CSC(c2c(F)cccc2F)N1c1nncs1 (centres undefined)
inactive: [1] 98 % of control | [2] 100 % of control | [3] 98 % of control

CCN(CC)CCCC(C)Sc1ccnc2cc(Cl)ccc12 (centres undefined)
inactive: [1] 95 % of control | [2] 101 % of control | [3] 106 % of control

O=C(NC[N+]12CCO[B-]1(c1ccccc1)OCC2)c1ccccc1O (centres undefined)
inactive: [4] 106 % of control | [5] 98 % of control | [6] 103 % of control

O=C1CSC(c2cccc(F)c2)N1CCN1C(=O)CSC1c1cccc(F)c1 (centres undefined)
inactive: [1] 95 % of control | [2] 98 % of control | [3] 106 % of control

CCn1c(Cl)c(/C=N/NS(=O)(=O)c2ccc(C)cc2)c2cccc(/C=N\NS(=O)(=O)c3ccc(C)cc3)c21
inactive: dose: 50.0 mg/kg/injection, schedule: Q01DX001 (ip), vehicle: Klucel (hydroxypropylcellulose) (HPC) 99 % of control | dose: 100.0 mg/kg/injection, schedule: Q01DX001 (ip), vehicle: Klucel (hydroxypropylcellulose) (HPC) 96 % of control

CC(O)CNC1CCCCC1 (centres undefined)
inactive: [7] 100 % of control | [8] 100 % of control | [9] 100 % of control

Cn1cc(C2NC(=O)c3ccccc3N2)c2ccccc21 (centres undefined)
inactive: dose: 25.0 mg/kg/injection, schedule: Q01DX005 (ip), vehicle: Klucel (hydroxypropylcellulose) (HPC) 102 % of control | [4] 106 % of control | dose: 88.0 mg/kg/injection, schedule: Q01DX005 (ip), vehicle: Klucel (hydroxypropylcellulose) (HPC) 113 % of control | [5] 115 % of control

O=C1NCCN1C(=O)Nc1ccc(Cl)c(Cl)c1
inactive: [10] 116 % of control | [11] 108 % of control | dose: 200.0 mg/kg/injection, schedule: Q01DX009 (ip), vehicle: Klucel (hydroxypropylcellulose) (HPC) 110 % of control

CCOC(=O)C(C(=O)OCC)c1nc[nH]c1[N+](=O)[O-]
inactive: dose: 25.0 mg/kg/injection, schedule: Q04DX003 (ip), vehicle: saline with Tween-80 108 % of control | dose: 50.0 mg/kg/injection, schedule: Q04DX003 (ip), vehicle: saline with Tween-80 104 % of control | dose: 100.0 mg/kg/injection, schedule: Q04DX003 (ip), vehicle: saline with Tween-80 100 % of control and 97 % of control

O=C1NC(=O)C2=C1CCCC2Br (centres undefined)
inactive: dose: 3.13 mg/kg/injection, schedule: Q01DX009 (ip), vehicle: distilled water + Tween-80 99 % of control | dose: 6.25 mg/kg/injection, schedule: Q01DX009 (ip), vehicle: distilled water + Tween-80 92 % of control | dose: 12.5 mg/kg/injection, schedule: Q01DX009 (ip), vehicle: distilled water + Tween-80 117 % of control

Cc1c2cc[n+](C)cc2c(COC2OC(CO)C(O)C2O)c2c3ccccc3n(C)c12 (centres undefined)
inactive: dose: 60.0 mg/kg/injection, schedule: Q01DX005 (ip), vehicle: Klucel (hydroxypropylcellulose) (HPC) 123 % of control

CC1CC[P+](Cc2ccccc2)(c2ccccc2)CC1 (centres undefined)
inactive: dose: 1.56 mg/kg/injection, schedule: Q04DX002 (ip), vehicle: saline 98 % of control | dose: 3.13 mg/kg/injection, schedule: Q04DX002 (ip), vehicle: saline 95 % of control | dose: 6.25 mg/kg/injection, schedule: Q04DX002 (ip), vehicle: saline 90 % of control

CC1=C2C(O)C(=O)OC3CC4C(C)(C)C(=O)CCC4(C)C(CC1)C23C (centres undefined)
inactive: dose: 0.1 mg/kg/injection, schedule: Q01DX009 (ip), vehicle: Klucel (hydroxypropylcellulose) (HPC) 97 % of control | dose: 0.21 mg/kg/injection, schedule: Q01DX009 (ip), vehicle: Klucel (hydroxypropylcellulose) (HPC) 98 % of control | dose: 0.43 mg/kg/injection, schedule: Q01DX009 (ip), vehicle: Klucel (hydroxypropylcellulose) (HPC) 100 % of control | dose: 0.87 mg/kg/injection, schedule: Q01DX009 (ip), vehicle: Klucel (hydroxypropylcellulose) (HPC) 102 % of control | dose: 1.75 mg/kg/injection, schedule: Q01DX009 (ip), vehicle: Klucel (hydroxypropylcellulose) (HPC) 98 % of control

COc1cccc2c1C(=O)c1c(O)c3c(c(O)c1C2=O)C(OC)C(O)(C(C)=O)CC3OC1CC(N)C(O)C(C)O1 (centres undefined)
inactive: dose: 3.13 mg/kg/injection, schedule: Q04DX003 (ip), vehicle: water 100 % of control | dose: 6.25 mg/kg/injection, schedule: Q04DX003 (ip), vehicle: water 100 % of control | dose: 12.5 mg/kg/injection, schedule: Q04DX003 (ip), vehicle: water 108 % of control | dose: 25.0 mg/kg/injection, schedule: Q04DX003 (ip), vehicle: water 115 % of control | dose: 50.0 mg/kg/injection, schedule: Q04DX003 (ip), vehicle: water 115 % of control

C[n+]1ccc(NN)cc1
inactive: [4] 100 % of control | [5] 103 % of control | [6] 101 % of control

CC(CCOc1ccc2ccc(=O)oc2c1)C1=CC(=O)C(C)(C)O1 (centres undefined)
inactive: dose: 12.5 mg/kg/injection, schedule: Q01DX009 (ip), vehicle: saline with Tween-80 103 % of control | [7] 90 % of control | [8] 116 % of control | [9] 116 % of control

COC(=O)c1ccc(Nc2cn[nH]n2)cc1
inactive: [4] 101 % of control | [5] 100 % of control | [6] 98 % of control

COC(=O)C12C=CC(C(=O)OC)(CC1)n1c(=O)n(-c3ccccc3)c(=O)n12
inactive: [1] 107 % of control | [2] 100 % of control | [3] 100 % of control

NS(=O)(=O)c1cc([N+](=O)[O-])sc1SSc1sc([N+](=O)[O-])cc1S(N)(=O)=O
inactive: dose: 6.25 mg/kg/injection, schedule: Q01DX001 (ip), vehicle: saline with Tween-80 99 % of control | dose: 12.5 mg/kg/injection, schedule: Q01DX001 (ip), vehicle: saline with Tween-80 104 % of control | dose: 25.0 mg/kg/injection, schedule: Q01DX001 (ip), vehicle: saline with Tween-80 100 % of control

O=C(O)CCc1c(-c2ccccc2)[nH]c2ccccc12
inactive: dose: 60.0 mg/kg/injection, schedule: Q01DX005 (ip), vehicle: Klucel + Tween-80 100 % of control | dose: 120.0 mg/kg/injection, schedule: Q01DX005 (ip), vehicle: Klucel + Tween-80 100 % of control | dose: 240.0 mg/kg/injection, schedule: Q01DX005 (ip), vehicle: Klucel + Tween-80 100 % of control

CCOC(=O)/C=C/C(=O)NNS(=O)(=O)CC(N)C(=O)O (centres undefined)
inactive: dose: 100.0 mg/kg/injection, schedule: Q04DX003 (ip), vehicle: acid diluted with saline 105 % of control | dose: 200.0 mg/kg/injection, schedule: Q04DX003 (ip), vehicle: acid diluted with saline 109 % of control

COC1(OC)C2C(Br)=C(Br)C1C1CCC/C=C\CC12 (centres undefined)
inactive: [12] 103 % of control | [13] 103 % of control | [14] 109 % of control

NC1=NN(S(=O)(=O)c2ccccc2)CC1
inactive: [4] 94 % of control | [5] 99 % of control | [6] 98 % of control

CCOc1cccc2c1C(O)(C#Cc1ccccc1)c1cccc(OCC)c1C2(O)C#Cc1ccccc1 (centres undefined)
inactive: [12] 87 % of control | [13] 87 % of control | [14] 91 % of control

CCn1c(=O)c2[nH]c(Cl)nc2n(C2CC2)c1=O
inactive: [10] 99 % of control | [11] 101 % of control

c1ccc(COCC(COCc2ccccc2)(COCc2ccccc2)COCc2ccccc2)cc1
inactive: dose: 12.5 mg/kg/injection, schedule: Q01DX009 (ip), vehicle: saline + alcohol 105 % of control | dose: 25.0 mg/kg/injection, schedule: Q01DX009 (ip), vehicle: saline + alcohol 104 % of control | dose: 50.0 mg/kg/injection, schedule: Q01DX009 (ip), vehicle: saline + alcohol 97 % of control
